The values below come from patent EP4268824A1 (Manros Therapeutics, priority 2022, dated 2023).

Broadly, the IC50 is the concentration at which inhibition is half-maximal.

One test deals with kinase. The conditions noted are these: Bettayeb et al. 2008; Popowycz et al. 2009; cited from earlier work.
For test [1] the following is noted: Bettayeb et al. 2008; Popowycz et al. 2009; cited from earlier work.
The target in test [2] is T1, F508del-CFTR (Homo sapiens, UniProt P13569, DEL508-508).
T1 construct: expressed in transfected cells; host or cells: CFBE41o- cells (CFBE F508del-CFTR), puromycin-selected
Nature of the test: CFTR activation assay: short-circuit current measurements (Ussing chamber) in CFBE cells treated 24 h with CFTR modulator(s) plus compound. The format is cell-based. The conditions noted are these: for F508del-CFTR activity as percentage of F508del-CFTR activity in the presence of Trikafta alone (100%): CFE cells, with Trikafta. The protocol: • FIG 1. represents the conductance measurement as a function of time for assessing the activity of F508del-CFTR in CFBE cells using the Ussing chamber as set forth in example 13. Cells are incubated for 24 hours with either Trikafta® alone or Trikafta® + a compound of formula (I) as defined herein after. Conductance is measured as a function of time. […] This is the measure which are reported in all Tables shown below. • FIG 2. The correcting effect of Trikafta® on F508del-CFTR in a pulmonary epithelial cell line derived from a F508del-CFTR CF patient was tested as set forth in example 13 herein after in the presence of increasing concentrations of compound (44) as defined herein after and compound (107) as defined herein after. Dose-response curves were built from the activation and inhibition data (see FIG. 1). 100% represents the activity of Trikafta® alone. • FIG 3. […] CFE cells were treated with Trikafta® 100%, 33%, or 11%, in the absence or presence of 1 µM of compound (107). F508del-CFTR activity was monitored as described in the Experimental section and above. Activity is reported as percentage of δF508del-CFTR activity in the presence of Trikafta® alone (100%). The fold change over the activity of Trikafta® alone is indicated in parentheses. • FIG 4. The correcting effect of further CFTR modulators than Trikafta®, i.e. Galapagos compounds as defined herein after (GLPG 222 (G1), GLPG 1837 (G2), GLPG 2451 (G3)) (1 µM each) on F508del-CFTR in a pulmonary epithelial cell line derived from a F508del-CFTR CF patient was tested as set forth in example 13 herein after in the presence of increasing concentrations of compound (107) as defined herein after. Dose-response curves were built from the activation and inhibition data (see FIG. 1). 100% represents the activity of each CFTR modulator alone.
The activity of F508del-CFTR was indeed estimated according to the method described below in example 13. This method makes use of CFBE cells, an immortalized cell line generated from bronchial epithelium of a CF patient homozygous for F508del-CFTR [Kunzelmann, K. et al., 1993. An immortalized cystic fibrosis tracheal epithelial cell line homozygous for the F508del CFTR mutation. Am. J. Respir. Cell Mol. Biol. 8, 522-529.]. Cells are exposed for 24 hours to a combination of Trikafta® and a compound of formula (I) as defined herein after to be evaluated, and the activity of F508del-CFTR is measured by conductance in a Ussing chamber. The activation is initiated by addition of Forskolin (1 µM). […] All compounds tested were evaluated in combination with Trikafta®. In most instances, compounds were tested in triplicates at 0.1, 1 and 10 µM.
Wild-type CFBE cells (containing full-length, unmutated CFTR) are used as a reference.
F508del-CFTR expressing cells used in this present study were treated with CFTR modulators 24 h prior the experiments. The following CFTR modulators were used: Vx770 (Ivacaftor) (Selleckchem, S 1144) (Selleckchem, 24, rue des Tuileries, BP684, 67460 Souffelweyersheim, France), Vx445 (Elexacaftor) (Selleckchem, SE-S8851), Vx661 (Tezacaftor) (TargetMol, HY-15448) (TargetMol, Tebu-bio, 39 rue de Houdan, BP 15, 78612 Le-Perray-en-Yvelines cedex, France). Trikafta® is the combination of 1 µM Vx770, 3 µM Vx 445 and […] Vx661.
CFBE cell line stably expressing F508del-CFTR or WT-CFTR (CFBE WT-CFTR) were grown at 37°C in 5% CO2 - 95% air and media was replaced every 2 days.

In the next test the target is CLK4 (Homo sapiens, UniProt Q9HAZ1). Briefly: Kinase inhibition, dose-response. The format is biochemical. The conditions noted are these: read-out: IC50 CLK4; > 10: no inhibition at 10 µM, the highest dose tested. An excerpt: All compounds were additionally tested over a range of concentrations for their ability to inhibit a series of 14 kinases. […] Their F508del-CFTR activity is reported as percentage of F508del-CFTR activity in the presence of Trikafta alone (100%).

Another test deals with CLK2 (Homo sapiens, UniProt P49760). Nature of the test: Kinase inhibition, dose-response. In kind it is biochemical. The conditions noted are these: > 10: no inhibition at 10 µM, the highest dose tested. The protocol:
(§1) All compounds were additionally tested over a range of concentrations for their ability to inhibit a series of 14 kinases. IC50 values were calculated from the dose-response curves and are reported in µM. > 10, no inhibition at 10 µM, the highest dose tested (see table 6 below). [drawing 409] Table 5: CFE cells were treated with Trikafta in the presence of increasing concentrations of various compounds and their N7-methylated counterparts. Their F508del-CFTR activity is reported as percentage of F508del-CFTR activity in the presence of Trikafta alone (100%).

The target in another test is CDK7 (Homo sapiens, UniProt P50613). Briefly: Kinase inhibition, dose-response. In kind it is biochemical. To be noted: > 10: no inhibition at 10 µM, the highest dose tested. The protocol: as §1
The next test concerns the target CK1α1 (Homo sapiens, UniProt P48729). Nature of the test: Kinase inhibition, dose-response. In kind it is biochemical. To be noted: > 10: no inhibition at 10 µM, the highest dose tested. The protocol:
as §1

The target of the next test is CDK9 (Homo sapiens, UniProt P50750). Nature of the test: Kinase inhibition, dose-response. The format is biochemical. The conditions noted are these: > 10: no inhibition at 10 µM, the highest dose tested. The protocol:
as §1

The target of the next test is CLK3 (Homo sapiens, UniProt P49761). Nature of the test: Kinase inhibition, dose-response. To be noted: > 10: no inhibition at 10 µM, the highest dose tested. In kind it is biochemical. The protocol: as §1
For the next test, the target named is CK1γ1 (Homo sapiens, UniProt Q9HCP0). Briefly: Kinase inhibition, dose-response. The format is biochemical. To be noted: > 10: no inhibition at 10 µM, the highest dose tested. The protocol: as §1
Another test deals with CK1γ2 (Homo sapiens, UniProt P78368). Briefly: Kinase inhibition, dose-response. The format is biochemical. To be noted: > 10: no inhibition at 10 µM, the highest dose tested. The protocol: as §1
Another test has as its target CK1δ (Homo sapiens, UniProt P48730). Briefly: Kinase inhibition, dose-response. To be noted: > 10: no inhibition at 10 µM, the highest dose tested. The format is biochemical. The protocol: as §1
A further test has as its target DYRK1A (Homo sapiens, UniProt Q13627). Briefly: Kinase inhibition, dose-response. The format is biochemical. To be noted: > 10: no inhibition at 10 µM, the highest dose tested. The protocol:
as §1

The target in the next test is CLK1 (Homo sapiens, UniProt P49759). Briefly: Kinase inhibition, dose-response. The format is biochemical. To be noted: > 10: no inhibition at 10 µM, the highest dose tested. The protocol:
as §1

Another test concerns the target CK1ε (Homo sapiens, UniProt P49674). Briefly: Kinase inhibition, dose-response. The format is biochemical. To be noted: > 10: no inhibition at 10 µM, the highest dose tested. The protocol: as §1
Another test has as its target CDK2 (Homo sapiens, UniProt P24941). Nature of the test: Kinase inhibition, dose-response. In kind it is biochemical. To be noted: > 10: no inhibition at 10 µM, the highest dose tested. The protocol: as §1
The next test deals with CK1γ3 (Homo sapiens, UniProt Q9Y6M4). Nature of the test: Kinase inhibition, dose-response. In kind it is biochemical. The conditions noted are these: > 10: no inhibition at 10 µM, the highest dose tested. The protocol: as §1
Test [3] relates to F508del-CFTR. To be noted: Norez et al. 2014; cited from earlier work.
Another test has as its system alveolar macrophages. To be noted: Riazanski et al. 2015; cited from earlier work.

T1 sequence (P13569 with tags, fused parts or gaps DEL508-508): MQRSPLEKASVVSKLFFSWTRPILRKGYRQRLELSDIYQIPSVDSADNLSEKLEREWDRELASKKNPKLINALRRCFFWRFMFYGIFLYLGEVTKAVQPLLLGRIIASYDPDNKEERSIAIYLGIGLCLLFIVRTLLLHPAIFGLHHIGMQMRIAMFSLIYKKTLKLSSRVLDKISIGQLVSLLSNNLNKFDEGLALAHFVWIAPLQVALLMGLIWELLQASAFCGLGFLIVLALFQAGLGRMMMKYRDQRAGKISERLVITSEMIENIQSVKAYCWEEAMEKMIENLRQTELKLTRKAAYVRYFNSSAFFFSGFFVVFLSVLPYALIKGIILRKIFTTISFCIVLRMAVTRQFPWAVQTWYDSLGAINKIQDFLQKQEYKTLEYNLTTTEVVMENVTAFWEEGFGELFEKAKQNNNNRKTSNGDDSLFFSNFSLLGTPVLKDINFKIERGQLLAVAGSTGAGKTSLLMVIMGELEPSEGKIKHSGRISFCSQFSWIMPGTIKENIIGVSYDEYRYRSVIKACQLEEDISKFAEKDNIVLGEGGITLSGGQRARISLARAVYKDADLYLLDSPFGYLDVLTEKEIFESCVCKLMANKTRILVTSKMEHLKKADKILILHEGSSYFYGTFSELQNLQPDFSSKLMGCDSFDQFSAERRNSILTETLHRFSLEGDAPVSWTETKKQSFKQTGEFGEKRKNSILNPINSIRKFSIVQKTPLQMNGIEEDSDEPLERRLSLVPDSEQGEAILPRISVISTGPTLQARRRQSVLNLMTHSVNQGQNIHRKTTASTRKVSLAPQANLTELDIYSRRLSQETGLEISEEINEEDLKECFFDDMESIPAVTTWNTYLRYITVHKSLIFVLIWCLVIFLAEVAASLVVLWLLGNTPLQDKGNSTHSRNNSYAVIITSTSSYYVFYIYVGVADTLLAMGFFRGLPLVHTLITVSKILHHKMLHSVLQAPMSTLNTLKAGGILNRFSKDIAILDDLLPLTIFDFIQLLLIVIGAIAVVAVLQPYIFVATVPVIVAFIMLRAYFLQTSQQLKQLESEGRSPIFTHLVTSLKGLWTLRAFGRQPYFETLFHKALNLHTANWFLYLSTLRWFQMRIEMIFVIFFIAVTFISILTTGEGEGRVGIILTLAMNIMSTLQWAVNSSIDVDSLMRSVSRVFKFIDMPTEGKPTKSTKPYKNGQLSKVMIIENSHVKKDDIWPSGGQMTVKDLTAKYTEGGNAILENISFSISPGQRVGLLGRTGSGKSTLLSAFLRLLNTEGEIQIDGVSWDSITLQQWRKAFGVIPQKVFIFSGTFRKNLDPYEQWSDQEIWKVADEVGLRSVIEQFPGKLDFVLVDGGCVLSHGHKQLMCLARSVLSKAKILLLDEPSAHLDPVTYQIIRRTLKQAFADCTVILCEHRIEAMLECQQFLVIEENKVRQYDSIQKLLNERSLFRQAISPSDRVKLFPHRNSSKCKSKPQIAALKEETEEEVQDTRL
CLK1, sequence (P49759 whole entry): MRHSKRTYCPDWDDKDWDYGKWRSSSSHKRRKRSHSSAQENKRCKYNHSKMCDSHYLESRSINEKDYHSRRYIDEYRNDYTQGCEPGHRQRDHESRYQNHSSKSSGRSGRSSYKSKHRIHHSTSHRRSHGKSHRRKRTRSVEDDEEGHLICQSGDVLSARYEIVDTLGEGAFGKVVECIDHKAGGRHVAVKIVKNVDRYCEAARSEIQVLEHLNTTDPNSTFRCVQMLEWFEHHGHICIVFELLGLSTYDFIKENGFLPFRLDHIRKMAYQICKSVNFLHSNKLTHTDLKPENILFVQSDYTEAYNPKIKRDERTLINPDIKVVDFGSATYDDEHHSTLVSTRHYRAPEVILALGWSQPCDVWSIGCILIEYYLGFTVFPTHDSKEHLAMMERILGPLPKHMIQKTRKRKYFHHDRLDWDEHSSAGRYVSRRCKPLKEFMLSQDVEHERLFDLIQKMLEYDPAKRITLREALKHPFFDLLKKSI
CK1δ, sequence (P48730 whole entry): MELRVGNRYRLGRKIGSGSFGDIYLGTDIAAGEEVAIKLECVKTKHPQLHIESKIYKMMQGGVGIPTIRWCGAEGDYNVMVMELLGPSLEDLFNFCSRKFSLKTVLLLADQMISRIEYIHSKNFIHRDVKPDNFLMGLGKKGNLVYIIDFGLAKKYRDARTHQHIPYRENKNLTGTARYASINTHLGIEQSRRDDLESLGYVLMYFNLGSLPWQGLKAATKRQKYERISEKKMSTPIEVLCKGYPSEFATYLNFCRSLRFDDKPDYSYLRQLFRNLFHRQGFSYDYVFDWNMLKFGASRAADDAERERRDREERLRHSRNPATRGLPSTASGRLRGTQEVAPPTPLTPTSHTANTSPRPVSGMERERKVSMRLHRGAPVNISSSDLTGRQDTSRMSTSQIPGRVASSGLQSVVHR
CK1ε, sequence (P49674 whole entry): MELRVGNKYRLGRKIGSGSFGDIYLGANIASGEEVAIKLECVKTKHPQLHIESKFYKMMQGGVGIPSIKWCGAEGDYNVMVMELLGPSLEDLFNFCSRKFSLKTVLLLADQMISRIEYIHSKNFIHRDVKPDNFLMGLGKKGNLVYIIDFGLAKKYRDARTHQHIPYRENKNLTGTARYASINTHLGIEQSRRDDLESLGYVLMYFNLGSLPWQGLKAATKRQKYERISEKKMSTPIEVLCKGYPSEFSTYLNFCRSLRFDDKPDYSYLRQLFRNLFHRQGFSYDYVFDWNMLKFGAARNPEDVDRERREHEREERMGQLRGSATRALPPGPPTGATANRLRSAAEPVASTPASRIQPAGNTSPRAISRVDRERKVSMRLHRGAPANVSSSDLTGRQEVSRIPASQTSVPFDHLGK
CK1γ3, sequence (Q9Y6M4 whole entry): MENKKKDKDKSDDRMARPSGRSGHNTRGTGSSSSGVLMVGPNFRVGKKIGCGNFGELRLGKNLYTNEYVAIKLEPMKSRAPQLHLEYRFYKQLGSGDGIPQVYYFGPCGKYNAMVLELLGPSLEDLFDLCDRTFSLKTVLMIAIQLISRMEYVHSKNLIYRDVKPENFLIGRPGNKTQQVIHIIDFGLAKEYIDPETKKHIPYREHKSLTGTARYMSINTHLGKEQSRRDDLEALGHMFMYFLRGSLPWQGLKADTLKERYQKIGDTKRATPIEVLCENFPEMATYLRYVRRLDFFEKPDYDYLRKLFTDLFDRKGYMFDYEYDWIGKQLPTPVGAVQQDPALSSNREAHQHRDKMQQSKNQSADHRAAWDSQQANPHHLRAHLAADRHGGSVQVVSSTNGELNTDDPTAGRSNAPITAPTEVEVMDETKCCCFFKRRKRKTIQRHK
CLK2, sequence (P49760 whole entry, species assumed): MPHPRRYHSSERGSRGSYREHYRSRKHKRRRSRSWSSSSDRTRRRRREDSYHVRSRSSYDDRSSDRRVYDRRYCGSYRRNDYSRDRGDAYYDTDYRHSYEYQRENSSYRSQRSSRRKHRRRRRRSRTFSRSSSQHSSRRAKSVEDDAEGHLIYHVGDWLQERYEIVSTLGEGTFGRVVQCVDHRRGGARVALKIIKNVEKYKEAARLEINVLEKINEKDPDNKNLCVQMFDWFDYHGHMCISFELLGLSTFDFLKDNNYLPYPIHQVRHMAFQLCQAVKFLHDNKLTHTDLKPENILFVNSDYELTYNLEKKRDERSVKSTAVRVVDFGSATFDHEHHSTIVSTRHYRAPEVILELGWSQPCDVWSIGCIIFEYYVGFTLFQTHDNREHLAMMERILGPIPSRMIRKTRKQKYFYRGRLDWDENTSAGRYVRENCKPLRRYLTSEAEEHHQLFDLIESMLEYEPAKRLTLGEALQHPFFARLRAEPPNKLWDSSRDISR
CLK4, sequence (Q9HAZ1 whole entry, species assumed): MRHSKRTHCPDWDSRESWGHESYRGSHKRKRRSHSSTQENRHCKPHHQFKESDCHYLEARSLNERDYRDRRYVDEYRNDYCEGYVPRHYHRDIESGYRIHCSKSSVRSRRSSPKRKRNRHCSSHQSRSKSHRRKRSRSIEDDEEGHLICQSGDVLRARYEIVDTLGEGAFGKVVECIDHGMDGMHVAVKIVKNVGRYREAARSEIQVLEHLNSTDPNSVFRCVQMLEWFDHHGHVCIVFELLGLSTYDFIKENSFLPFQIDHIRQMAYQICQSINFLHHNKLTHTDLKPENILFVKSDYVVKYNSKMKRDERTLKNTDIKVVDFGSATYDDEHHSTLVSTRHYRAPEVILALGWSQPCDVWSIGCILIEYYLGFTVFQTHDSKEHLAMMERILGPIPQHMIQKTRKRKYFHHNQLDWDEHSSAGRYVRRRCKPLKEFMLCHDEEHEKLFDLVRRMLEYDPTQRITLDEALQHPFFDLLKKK
CLK3, sequence (P49761 whole entry, species assumed): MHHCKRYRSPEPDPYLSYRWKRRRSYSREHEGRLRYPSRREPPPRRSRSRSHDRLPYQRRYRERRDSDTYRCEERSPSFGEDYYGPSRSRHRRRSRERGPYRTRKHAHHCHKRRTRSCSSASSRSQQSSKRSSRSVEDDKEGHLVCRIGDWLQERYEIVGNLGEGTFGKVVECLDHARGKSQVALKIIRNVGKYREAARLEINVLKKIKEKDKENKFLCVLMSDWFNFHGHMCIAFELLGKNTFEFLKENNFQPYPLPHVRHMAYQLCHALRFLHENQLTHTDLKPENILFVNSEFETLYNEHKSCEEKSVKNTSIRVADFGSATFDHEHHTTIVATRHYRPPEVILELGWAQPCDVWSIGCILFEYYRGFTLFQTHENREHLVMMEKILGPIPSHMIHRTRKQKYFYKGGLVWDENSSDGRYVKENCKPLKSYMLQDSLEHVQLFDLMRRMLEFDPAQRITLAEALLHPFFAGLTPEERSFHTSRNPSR

With `CC[C@H](CO)Nc1nc(NCc2ccccc2)c2ncc(C(C)C)n2n1` [compound 6, (2R)-2-[[4-(Benzylamino)-7-isopropyl-imidazo[2,1-f][1,2,4]triazin-2-yl]amino]butan-1-ol], the kinase inhibitory activity result on kinase is on record as “modest kinase inhibitory activity”. The antitumor properties result in test [1] is “modest antitumor properties”.
`CC(C)c1cnc2c(N(C)Cc3ccccc3)nc(NC3CCOCC3)nn12` [compound 49]: the “F508del-CFTR activity as percentage of F508del-CFTR activity in the presence of Trikafta alone (100%)” value on F508del-CFTR [2] (concentration 0.1 µM) is 113.0%; at F508del-CFTR [2] (concentration 1 µM) it was 125.9%; at F508del-CFTR [2] (concentration 10 µM) it was 147.1%. Also, the IC50 on CLK4, at CLK2, on CDK7, on CK1α1, on CDK9 and against CLK3 was more than 10 µM throughout. Further, the IC50 at CK1γ1, on CK1γ2, at CK1δ, at DYRK1A, against CLK1 and on CK1ε was more than 10 µM throughout. The concentration for half-maximal inhibition (IC50) at CDK2 and on CK1γ3 was more than 10 µM throughout.
In the case of `CC[C@H](CO)Nc1nc(NCc2ccccc2)c2ncn(C(C)C)c2n1` [roscovitine], the “activating or boosting activity on a human lung epithelium cell line with F508del-CFTR mutation, in combination with Trikafta®” value at F508del-CFTR [2] (result in words) is given as “no activating or boosting activity”. Besides, the “correction of the defective function of F508del-CFTR” value with F508del-CFTR [3] is on record as “partially correct the defective function of F508del-CFTR”. Further, the “intra-phagolysosomal pH of alveolar macrophages” value with alveolar macrophages was “reduce the intra-phagolysosomal pH of alveolar macrophages”.
